Measured values published in US11708338B2, “Substituted phenyl sulfonyl phenyl triazole thiones and uses thereof” (Neuropore Therapies, Inc., priority 2017, dated 2023).

How the values were obtained:
Assay type in all cases: in vivo, mouse
[1] = system: Translocator Protein (18 kDa) (TSPO); test: TSPO immunofluorescence in cortex of L61 mice, 3 month administration study; conditions: L61 ASYN transgenic mice, 5 and 10 mg/kg i.p. daily, 3 months
Protocol: (§1) Compound 1 was injected into L61 ASYN transgenic mice and non-transgenic control mice (i.p., once daily) at doses of 5 and 10 mg/kg for 3 months (79 total mice, n=14-17 mice per treatment group). The vehicle control consisted of a solution containing 5% DMSO+20% Cremphor EL+0.9% normal saline. The baseline grip strength of mice was evaluated prior to starting treatments for the 3 month study, and then re-evaluated following 70 days of treatment with vehicle or Compound 1 (5 or 10 mg/kg, i.p. daily).
Neuroinflammation is associated with increased expression of the 18-kDa translocator protein (TSPO), which is a marker for inflammation and is present on the mitochondria of activated microglia, astroglia and macrophages (Crawshaw and Robertson 2017). The effects of Compound 1 on the levels of Translocator Protein (18 kDa) (TSPO) were assessed in both L61 ASYN transgenic and non-transgenic mice in the aforementioned 3 month administration study. At the end of the study, the mice were sacrificed, and immunofluorescence (IF) detection of TSPO were assessed in the harvested brain tissues.
FIGS. 15A-B show the levels of TSPO immunolabeling in representative cross-sections of the cortex of the mice. […]

[2] = system: dopaminergic (DAT) transporter; test: DAT IHC immunolabeling in striatum, striatal-to-reference ratio; conditions: L61 ASYN transgenic mice, 3 months
Protocol: The harvested brain tissues were drop fixed using 4% PFA and sectioned on a vibratome, and representative sections corresponding to the striatum and cerebellum were assessed for DAT with IHC staining.
Immunolabeling studies of DAT were conducted using a monoclonal antibody (1:500; MAB369; Millipore, Temecula, Calif.) and a biotinylated secondary antibody (1:100; BA4000, Vector Labs) and analysis was performed on blindcoded sections from Line 61 transgenic and non-transgenic mice. Slides were digitized using a high resolution automated Nanozoomer slide scanner (Hamamatsu Corp.). Digitized images were analyzed using Halo (Indica Labs) image analysis software package by placing an ROI frame within the dorsal striatum and another within a separate reference brain region (for normalization of DAT signal). A thresholding algorithm was defined and then applied equally to all images to determine the average optical density of DAT immunolabeling across each ROI The results of the analysis were then exported for graphing and statistical analysis and the striatal DAT:cortical (reference region) DAT optical densities ratio was calculated for each subject.
Quantification of DAT density was carried out by calculating the immunofluorescence in striatal sections against that in cerebellum sections to derive a striatal-to-reference ratio.

L61 ASYN transgenic mice = test: Grip strength evaluation (motor performance), 3 month administration study; conditions: 5 mg/kg and 10 mg/kg i.p. daily, after 70 days of treatment
Protocol: The effects of Compound 1 on the motor performance deficits (grip strength) and a marker of neuroinflammation (Translocator Protein (18 kDa)) were assessed in both L61 ASYN transgenic and non-transgenic mice in a 3 month administration study.
as §1
At baseline, there was a statistically significant grip strength deficit in transgenic mice compared to non-transgenic mice. Treatment with Compound 1 (5 & 10 mg/kg) improved L61 ASYN transgenic grip strength deficits.

[3] = system: microtubule-associated protein 1A/1B-light chain 3 (LC3); test: LC3 immunolabeling (IHC) in brain, 1 month administration study; conditions: L61 ASYN transgenic mice, 1, 5 or 10 mg/kg per day i.p.
Protocol: Alpha-synuclein (ASYN) is a neuronal protein whose dysregulation has been implicated in the pathogenesis of PD. The effects of Compound 1 on alpha-synuclein aggregation were assessed in both L61 ASYN transgenic and non-transgenic mice in a 1 month administration study. L61 ASYN transgenic mice (36 total mice, n=8-11 mice per treatment group) were injected (i.p.) with 1, 5, or 10 mg/kg of Compound 1 or a vehicle control (5% DMSO+20% Cremphor EL+0.9% normal saline) per day for 1 month. Non-transgenic mice (18 total mice, n=8-11 mice per treatment group) were used as a control and were injected daily (i.p.) with 10 mg/kg of Compound 1 or a vehicle control (5% DMSO+20% Cremphor EL+0.9% normal saline) per day for 1 month. At the end of one month, the mice were sacrificed, and immunohistochemical (IHC) detection of total alpha-synuclein deposits, insoluble alpha-synuclein deposits (PK+resistant), microtubule-associated protein 1A/1B-light chain 3 (LC3), and monomeric alpha-synuclein levels were assessed in the harvested brain tissues.

[4] = system: Translocator Protein (18 kDa) (TSPO); test: TSPO immunofluorescence in cortex of L41 APP transgenic mice; conditions: 5 mg/kg daily i.p.
Protocol: Neuroinflammation is associated with increased expression of the 18-kDa translocator protein (TSPO), which is present on the mitochondria of activated microglia, astroglia and macrophages (Crawshaw and Robertson 2017). The effects of Compound 1 on TSPO expression were assessed in both L41 APP transgenic and non-transgenic mice in a 1 month administration study. L41 APP transgenic mice (36 total mice, n=8-11 mice per treatment group) were injected (i.p.) daily with 5 mg/kg of Compound 1 or a vehicle control (5% DMSO+20% Cremphor EL+0.9% normal saline) for […]. Non-transgenic mice (18 total mice, n=8-11 mice per treatment group) were used as a control and were injected daily (i.p.) with 10 mg/kg of Compound 1 (data not shown) or a vehicle control (5% DMSO+20% Cremphor EL+0.9% normal saline) for 1 month. After 30 days, the mice were sacrificed, and immunofluoresence (IF) detection of TSPO were assessed in the harvested brain tissues.
The harvested brain tissues were drop fixed using 4% PFA and sectioned on a vibratome, and representative sections corresponding to the neuropil of cortex were assessed for TSPO with standard immunofluorescence (IF) staining.

SMILES: O=S(=O)(c1ccc(-n2cn[nH]c2=S)cc1)c1ccc(Cl)c(C(F)(F)F)c1 [Compound 1, 4-(4-((4-chloro-3-(trifluoromethyl)phenyl)sulfonyl)phenyl)-2,4-dihydro-3H-1,2,4-triazole-3-thione]
- levels of TSPO in cortex vs vehicle control [1]: significantly decreased
- striatal levels of DAT, staining intensity in representative images (FIG. 18) vs vehicle-treated L61 mice ([2]; 5 mg/kg or 10 mg/kg daily): restoring striatal levels of DAT
- DAT striatal-to-reference ratio, quantification (FIG. 19) ([2]; 10 mg/kg dose): reduces the GFAP levels in a statistically significant manner
- grip strength vs vehicle-treated transgenic mice (L61 ASYN transgenic mice): higher grip strengths than vehicle-treated transgenic mice in a statistically significant manner
- levels of LC3 immunolabeling in cortex [3]: increased
- levels of LC3 immunolabeling in hippocampus (increase) [3]: not
- levels of LC3 immunolabeling in striatum [3]: increased
- cortical TSPO level vs vehicle-treated Line 41 mice, quantification (FIG. 20) [4]: reduces the TSPO level in a statistically significant manner
